Values after ≈ are worked out from the molar mass of the structure shown. Like-named read-outs stand apart in the source and are kept apart here.
What was measured:
S. aureus ATCC 13709 = test: MIC, S. aureus ATCC 13709; assay type: cell-based; details: for MIC: Staphylococcus aureus
E. coli ATCC 25922 = test: MIC, E. coli ATCC 25922; assay type: cell-based; details: for MIC: Escherichia coli
[1] = S. aureus, Alamar Blue read after overnight incubation at 35° C.
[2] = E. coli, Alamar Blue read after overnight incubation at 35° C.
[3] = ATCC13709, S. aureus, Alamar Blue read after overnight incubation at 35° C., read-out: MIC Sa
[4] = ATCC25922, E. coli, Alamar Blue read after overnight incubation at 35° C., read-out: MIC Ec

For `CNc1cc(F)cc2c1[nH]c1nc(Oc3cnc(N)nc3)nc(N3CC(NC(=O)CN)C4(CC4)C3)c12` (centres unmarked) [Compound 4.182], the “MIC Sa” value (S. aureus ATCC 13709; [1]) was 2 µg/mL (≈ 4.06 µM) and the “MIC Ec” value (E. coli ATCC 25922; [2]) was 16 µg/mL (≈ 32.5 µM).

For `CNc1cc(F)cc2c1[nH]c1nc(Oc3cnc(C(C)C)nc3)nc(N3CC4C(N)C4C3)c12` (centres unmarked) [Compound 4.232], the “MIC Sa” value (S. aureus ATCC 13709; [1]) was at most 0.5 µg/mL and the “MIC Ec” value (E. coli ATCC 25922; [2]) was at most 0.5 µg/mL.

Work on `CNc1cccc2c1[nH]c1nc(Sc3cnc4cccnc4c3)nc(N3CC4CNCC4C3)c12` (centres unmarked) [Compound 1.55] yielded an MIC (S. aureus ATCC 13709; [3]) of 1 µg/mL (≈ 2.13 µM) and an MIC (E. coli ATCC 25922; [4]) of 8 µg/mL (≈ 17.1 µM).

For `CNc1cc(F)cc2c1[nH]c1nc(Oc3cnc4c(C)cnn4c3)nc(N3C[C@H]4C[C@@H]3C[C@H]4N)c12` [Compound 10.19], the MIC Sa (S. aureus ATCC 13709; Table 18, Sa) was at most 0.5 µg/mL and the MIC Ec (E. coli ATCC 25922; Table 18, Ec) was at most 0.5 µg/mL.

With `CNc1cc(F)c(Cl)c2c1[nH]c1nc(Oc3cnc([C@@H](C)O)nc3)nc(N3CC4(CC[C@@H]4N)C3)c12` [Compound 10.88] the MIC Sa (S. aureus ATCC 13709; Table 18, Sa) was at most 0.5 µg/mL and the MIC Ec (E. coli ATCC 25922; Table 18, Ec) was at most 0.5 µg/mL.

`CNc1cc(F)cc2c1[nH]c1nc(Oc3cncc(OC)c3)nc(N3CC4CC(N)C4C3)c12` (centres unmarked) [Compound 4.167] was tested, and the “MIC Sa” value (S. aureus ATCC 13709; [1]) was at most 0.5 µg/mL and the “MIC Ec” value (E. coli ATCC 25922; [2]) was at most 0.5 µg/mL.

Work on `CNc1cc(F)c(Cl)c2c1[nH]c1nc(Oc3cnc([C@@H](C)O)nc3)nc(N3C[C@H]4C[C@@H]3C[C@H]4N)c12` [Compound 10.87] yielded an MIC Sa (S. aureus ATCC 13709; Table 18, Sa) of at most 0.5 µg/mL and an MIC Ec (E. coli ATCC 25922; Table 18, Ec) of at most 0.5 µg/mL.

`CNc1cc(F)cc2c1[nH]c1nc(Oc3cnc4c(C)cnn4c3)nc(N3CC4C[C@@H](N)C4C3)c12` (some centres unmarked) [Compound 10.30] was tested, and the MIC Sa (S. aureus ATCC 13709; Table 18, Sa) was at most 0.5 µg/mL and the MIC Ec (E. coli ATCC 25922; Table 18, Ec) was at most 0.5 µg/mL.

`CNc1cc(C)cc2c1[nH]c1nc(Oc3cncnc3)nc(N3CC4C(N)C4C3)c12` (centres unmarked) [Compound 6.27] was tested, and the “MIC Sa” value (S. aureus ATCC 13709; [1]) was at most 0.5 µg/mL and the “MIC Ec” value (E. coli ATCC 25922; [2]) was 1 µg/mL (≈ 2.48 µM).

In the case of `COc1cccc2c1[nH]c1nc(Sc3cnc4cccnc4c3)nc(N3CC4C(N)C4C3)c12` (centres unmarked) [Compound 1.75], the MIC (S. aureus ATCC 13709; [3]) is reported as at most 0.5 µg/mL and the MIC (E. coli ATCC 25922; [4]) is reported as over 64 µg/mL.

Compound `CNc1cccc2c1[nH]c1nc(Oc3cncnc3)cc(N3CC[C@@H](N)C3)c12` [Compound 3.4] has an MIC (S. aureus ATCC 13709; [3]) of 0.5 µg/mL (≈ 1.33 µM) and an MIC (E. coli ATCC 25922; [4]) of at most 0.5 µg/mL.

With `CNc1cc(F)cc2c1[nH]c1nc(Cc3cncnc3)nc(N3C[C@H](N)C4(CC4)C3)c12` the SA MIC (S. aureus ATCC 13709; Table 11, compounds wherein L = CH2) was at most 0.5 µg/mL and the EC8 MIC (E. coli ATCC 25922; Table 11, L = CH2, EC8 not defined) was 1 µg/mL.

In the case of `CNc1cc(F)cc2c1[nH]c1nc(Oc3cnc(N)nc3)nc(N3CC4CC(N)C4C3)c12` (centres unmarked) [Compound 4.184], the “MIC Sa” value (S. aureus ATCC 13709; [1]) is reported as at most 0.5 µg/mL and the “MIC Ec” value (E. coli ATCC 25922; [2]) is reported as 1 µg/mL (≈ 2.3 µM).

`CNc1cc(F)cc2c1[nH]c1nc(Oc3cnc(C)nc3)nc(N3CC(N4CC(N)C4)C3)c12` [Compound 4.158] was tested, and the “MIC Sa” value (S. aureus ATCC 13709; [1]) was at most 0.5 µg/mL and the “MIC Ec” value (E. coli ATCC 25922; [2]) was 4 µg/mL (≈ 8.9 µM).

For `CNc1cccc2c1[nH]c1nc(Sc3cnc4cccnc4c3)nc(N3CCC4(CC4N)C3)c12` (centres unmarked) [Compound 1.25], the MIC (S. aureus ATCC 13709; [3]) was at most 0.5 µg/mL and the “MIC Ec” value (E. coli ATCC 25922; [2]) was 4 µg/mL (≈ 8.54 µM).

Work on `CNc1cc(F)cc2c1[nH]c1nc(Oc3cnc(C)nc3)nc(N3CCC(C)(N)C3)c12` (centres unmarked) yielded an MIC (S. aureus ATCC 13709; ATCC13709, Table 16, new R4 substituents, read-out: SA MIC) of at most 0.5 µg/mL and an MIC (E. coli ATCC 25922; ATCC25922, Table 16, new R4 substituents, EC8 not defined, read-out: EC8 MIC) of at most 0.5 µg/mL.

`CNc1cccc2c1[nH]c1nc(Oc3cncnc3)cc(N3CCC4(CNC4)C3)c12` [Compound 3.65] gave an MIC (S. aureus ATCC 13709; [3]) of 8 µg/mL (≈ 19.9 µM) and an MIC (E. coli ATCC 25922; [4]) of 64 µg/mL (≈ 159 µM).

With `Cc1cccc2c1[nH]c1nc(Sc3cnc4nccnc4c3)nc(N3CC4C(N)C4C3)c12` (centres unmarked) [Compound 1.07] the “MIC Sa” value (S. aureus ATCC 13709; [1]) was 4 µg/mL (≈ 9.08 µM) and the “MIC Ec” value (E. coli ATCC 25922; [2]) was over 32 µg/mL.

Work on `COc1nccc2c1[nH]c1nc(Sc3cnc4cccnc4c3)nc(N3CC4C(N)C4C3)c12` (centres unmarked) [Compound 7.03] yielded an MIC (S. aureus ATCC 13709; [3]) of 2 µg/mL (≈ 4.38 µM) and an MIC (E. coli ATCC 25922; [4]) of over 64 µg/mL.

In the case of `CNc1cc(F)cc2c1[nH]c1nc(Oc3cnc(C)nc3)nc(-c3cncc(F)c3)c12` [Compound 4.417], the “MIC Sa” value (S. aureus ATCC 13709; [1]) is reported as at most 0.5 µg/mL and the “MIC Ec” value (E. coli ATCC 25922; [2]) is reported as 1 µg/mL (≈ 2.38 µM).

`CNc1cc(F)cc2c1[nH]c1nc(Oc3cncc(F)c3)nc(N3CC(N)C4(CC4)C3)c12` (centres unmarked) [Compound 4.057] was tested, and the “MIC Sa” value (S. aureus ATCC 13709; [1]) was at most 0.5 µg/mL and the “MIC Ec” value (E. coli ATCC 25922; [2]) was at most 0.5 µg/mL.

With `CNc1cccc2c1[nH]c1nc(Oc3ccc[n+]([O-])c3)cc(N3CC4C(N)C4C3)c12` (centres unmarked) [Compound 3.30] the MIC (S. aureus ATCC 13709; [3]) was 16 µg/mL (≈ 39.8 µM) and the MIC (E. coli ATCC 25922; [4]) was 16 µg/mL (≈ 39.8 µM).

In the case of `CNc1cc(F)cc2c1[nH]c1nc(Oc3cnc(C#N)c(C)c3)nc(N3CC(N)C4(CC4)C3)c12` (centres unmarked) [Compound 4.324], the “MIC Sa” value (S. aureus ATCC 13709; [1]) is reported as at most 0.5 µg/mL and the “MIC Ec” value (E. coli ATCC 25922; [2]) is reported as at most 0.5 µg/mL.

In the case of `C=Cc1cc(F)c(F)c2c1[nH]c1nc(Oc3cnc(C)nc3)nc(N3C[C@H]4C[C@@H]3C[C@H]4N)c12` [Compound 10.110], the MIC Sa (S. aureus ATCC 13709; Table 18, Sa) is reported as at most 0.5 µg/mL and the MIC Ec (E. coli ATCC 25922; Table 18, Ec) is reported as at most 0.5 µg/mL.

Compound `CNc1cc(F)cc2c1[nH]c1nc(Oc3cnc(CN)nc3)nc(N3CCC4(CC[C@H]4N)C3)c12` (some centres unmarked) [Compound 10.105] has an MIC Sa (S. aureus ATCC 13709; Table 18, Sa) of at most 0.5 µg/mL and an MIC Ec (E. coli ATCC 25922; Table 18, Ec) of 1 µg/mL (≈ 2.16 µM).

In the case of `CNc1cc(F)cc2c1[nH]c1nc(Oc3cnc(C)nc3)nc(NCCCN)c12` [Compound 4.108], the “MIC Sa” value (S. aureus ATCC 13709; [1]) is reported as 4 µg/mL (≈ 10.1 µM) and the “MIC Ec” value (E. coli ATCC 25922; [2]) is reported as over 16 µg/mL.

With `CNc1cc(F)c(C)c2c1[nH]c1nc(Oc3cnc(C)nc3)nc(N3CC4(CCC4N)C3)c12` (centres unmarked) [Compound 6.20] the “MIC Sa” value (S. aureus ATCC 13709; [1]) was 4 µg/mL (≈ 8.92 µM) and the “MIC Ec” value (E. coli ATCC 25922; [2]) was over 16 µg/mL.

Work on `CCNc1cccc2c1[nH]c1nc(Sc3cnc4cccnc4c3)nc(N3CC4C(N)C4C3)c12` (centres unmarked) [Compound 1.11] yielded an MIC (S. aureus ATCC 13709; [3]) of at most 0.5 µg/mL and an MIC (E. coli ATCC 25922; [4]) of 8 µg/mL (≈ 17.1 µM).

From patent US10865216B2, “Tricyclic Gyrase inhibitors” (MERCK SHARP & DOHME CORP., priority 2012, dated 2020)
